Earlier results on one molecule are cited in patent US20020194154A1, “Systems, methods and computer program products for integrating biological/chemical databases using aliases” (priority 2001, published 2002).

The conditions of the series: side effect; text mining of HSDB.

Take `CC(C)(C)NCC(O)c1cc(Cl)c(N)c(Cl)c1` (centres unmarked) [clenbuterol]: the cardiac arrhythmia entry is “can in some cases cause cardiac arrhythmia” and the heart rate entry was “increases heart rate”.
